Results reported in US9067190B2, “Method for loading amphiphile particles with active agents” (CAMURUS AB, priority 2003, dated 2015).

Experiments:
[1] = Effect of heat treatment on carrier-bound fraction of octreotide (loading system 3); assay type: physicochemical; conditions: 200 μg/ml octreotide, 5% amphiphile analogue of loading system 3
Description: Octreotide at a concentration of 200 μg/ml was added to 5% amphiphile analogues of loading system 3 (water content 95%). One set of samples were equilibrated at room temperature for 1 day, while another set was autoclaved at 125° C. for 20 minutes. The ocreotide concentration was determined by HPLC using a size exclusion column coupled to a UV detector.

[2] = Higher loading of progesterone by heat treatment (GMO/oleic acid/Lutrol F127 cubic particles); assay type: physicochemical
Description: Pre-formulations were prepared, including the fatty acid oleic acid, by the following method. • a) An initial melt was prepared containing GMO (85.5%), oleic acid (4.5%) and Lutrol F127 (10%). To 9 g of water under mechanical stirring was added 1 g of the molten mixture to form a coarse dispersion. • b) The coarse dispersion was homogenised with a microfluidiser at 345 bar. • c) The dispersion was heated to 120° C. for 20 minutes and cooled to room temperature.
The steroid hormone progesterone was incubated with the cubic particles formed in steps a) to c), at room temperature. The equilibrium loading level was 3% by weight.
The above method was repeated by the active agent progesterone was included in the aqueous phase prior to the homogenisation and heat treatment steps. The loading level was again examined and established to be 18 wt %. The effect upon the particle size distribution was minimal.
The composition with 18 wt % progesterone generated above was stored at room temperature for 14 days.

Row | Compound | % bound octreotide ([1]; 1 day at room temperature) | % bound octreotide ([1]; After Autoclavation 20 min (125° C.)) | Effect upon the particle size distribution ([2]; heat treatment loading of progesterone) | Loading level ([2]; progesterone in aqueous phase prior to homogenisation and heat treatment (120° C., 20 minutes)) | Equilibrium loading level ([2]; progesterone incubated with preformed cubic particles at room temperature)
1 | C[C@@H](O)[C@@H]1NC(=O)[C@H](CCCCN)NC(=O)[C@@H](Cc2c[nH]c3ccccc23)NC(=O)[C@H](Cc2ccccc2)NC(=O)[C@@H](NC(=O)[C@H](N)Cc2ccccc2)CSSC[C@@H](C(=O)N[C@H](CO)[C@@H](C)O)NC1=O [octreotide] | 18.07% | 30.04% | – | – | –
2 | CC(=O)[C@H]1CC[C@H]2[C@@H]3CCC4=CC(=O)CC[C@]4(C)[C@H]3CC[C@]12C [progesterone] | – | – | minimal | 18 wt % | 3 % by weight
